Data: US4786755A, “Diphenic acid monoamides” (Warner-Lambert Company, priority 1986, dated 1988)
Where two headings read alike, the source gives them in different places.

Assays:
leukotriene receptor = target: T1, leukotriene receptor (Cavia porcellus, UniProt Q2NNR5); assay: Binding of ^3 H-Leukotriene D4 to Guinea Pig Lung Membranes (RBL); conditions: ^3 H-LTD4, guinea pig lung membranes; read-out: IC50 RBL1
T1 construct: 20 mg original tissue wet weight of guinea pig lung membranes; tissue Kuiper Rabbit Farm, Gary, IN (animals); host or cells: guinea pig lung, crude membranes
T1 sequence (Q2NNR5 1-340): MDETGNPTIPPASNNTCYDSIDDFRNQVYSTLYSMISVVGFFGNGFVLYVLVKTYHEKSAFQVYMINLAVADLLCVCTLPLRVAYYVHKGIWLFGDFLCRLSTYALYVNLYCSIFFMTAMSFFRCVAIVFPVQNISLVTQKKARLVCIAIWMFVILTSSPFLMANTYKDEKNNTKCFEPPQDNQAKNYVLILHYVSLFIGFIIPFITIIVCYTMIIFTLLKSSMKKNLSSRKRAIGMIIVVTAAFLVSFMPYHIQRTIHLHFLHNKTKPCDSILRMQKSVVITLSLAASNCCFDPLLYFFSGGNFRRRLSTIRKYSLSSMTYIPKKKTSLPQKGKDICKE
Description: Additionally, the activity, of the compounds having the Formula I of the present invention is determined by the well known leukotriene receptor binding assay that is described by R. F. Bruns, W. J. Thomsen and T. A. Pugsley in Life Sciences, 33, 645 (1983) or the Herxheimer in vivo antiallergy test described in H. Herxheimer, J. Physiol. (London), Vol. 177, p. 251 (1952).
Binding of ^3 H-Leukotriene D4 to Guinea Pig Lung Membranes (RBL)
[14,15-^3 H]leukotriene D4 (^3 H-LTD4) (25 Ci/mmol and 40 Ci/mmol) is purchased from New England Nuclear. Unlabeled LTC4 is a gift of Ono Pharmaceuticals (Japan). LTC4, LTD4, and LTE4 are purchased as methyl esters from Paesel GmbH (Frankfurt, W. Germany). Concentrations of the Paesel leukotrienes are calculated from their absorbance at 280 nm. Leukotriene esters are saponified overnight under N2 in 3.3% potassium carbonate at room temperature. Tritiated leukotrienes are stored as received from New England Nuclear at -20° C. Ono LTC4 (5 μg/ml is stored at -60° C. in phosphate buffer pH 6.8. Saponified Paesel leukotrienes are stored at -60° C. in 3.3% potassium carbonate (pH 9.0-9.5). Aliquots of leukotrienes are taken from stock solutions immediately after thawing, after which the stock solutions are immediately refrozen. 2-Amino-2-(hydroxymethyl)-1,3-propanediol (Tris) is Sigma pH 7.7 pre-set crystals, and dimethylsulfoxide is Aldrich Gold Label.
Preparation of crude lung membranes
Two pairs of lungs (1.3 g) from freshly sacrificed 300 g male guinea pigs (older animals gave substantially lower binding) from Kuiper Rabbit Farm, Gary, IN are disrupted with a Polytron PT 10 (setting 4) for 30 seconds in 20 ml ice-cold 50 mM Tris adjusted with HCl to pH 7.7 at 25° C. (Tris buffer), filtered through a single layer of gauze to remove connective tissue, and centrifuged at 50,000 xg for ten min. The pellet is resuspended by homogenization with a Polytron in 20 ml Tris buffer, centrifuged at 50,000 xg for ten min., resuspended, incubated at 37° C. for 30 minutes, and centrifuged again. The final pellet is resuspended in Tris buffer and either used fresh or stored at -70° C.
All incubations are in triplicate for 60 minutes at 25° C. in 12×75 mm polystyrene tubes containing 1 ml Tris buffer with 20 mg original tissue wet weight of guinea pig lung membranes, 0.2 nM ^3 H-LTD4 (6,000-11,000 cpm), 10 mM MgCl2, and 1% dimethylsulfoxide. Leukotrienes are diluted in Tris buffer. All other test compounds are dissolved at 10 mM in dimethylsulfoxide on the same day as the experiment, and diluted in dimethylsulfoxide to 100× the final incubation concentration. Control incubations receive an equal volume (10 μl) of dimethylsulfoxide; the resulting concentration of dimethylsulfoxide had no effect on binding. ^3 H-LTD4 is diluted to 2 nM in Tris buffer. The membrane suspension (20 mg/0.89 ml) contains sufficient MgCl2 to give 10 mM final concentration in the incubation. […] All additions are performed at 0° C. Immediately after the last addition, the incubation is initiated by agitating the rack of tubes on a vortex mixer and warming to 25° C. in a water bath. Tubes are vortexed at least once more during the incubation to ensure that the membranes remained suspended. Incubations are terminated after 60 minutes by filtering under reduced pressure through 25 mm Whatman GF/B filters followed by rapid washing three times with 4 ml of ice-cold Tris buffer. Filters are added to scintillation vials with 8 ml Formula 947 (New England Nuclear), left overnight, shaken, and the radioactivity counted in a scintillation counter (efficiency 40%). Nonspecific binding, defined as binding of ^3 H-LTD4 in the presence of 100 nM LTC4, is 300-500 cpm for all lots of ^3 H-LTD4. Binding to the filters in the absence of tissue is about 100 cpm, and is not affected by unlabeled LTC4. Specific binding, defined as total binding minus nonspecific binding, varied considerably from lot to lot of ^3 H-LTD4. […]

Human Basophils = assay: Histamine Release from Human Basophils (HHB); format: cell-based; conditions: Homo sapiens, 33 μM cpd.
Text: Histamine Release from Human Basophils (HHB) Procedure for Quantitating Active Histamine Release, and its Inhibition by Drugs, from Basophils of Human Blood Using an Automated Fluorometric Histamine Assay
Mediator (histamine) release from human blood basophils is an assay which provides a model for evaluating potential antiallergy (mediator release inhibitors) compounds.
Blood from allergic donors is obtained from volunteers through the Community Research Clinic. The leukocytes are removed after Hespan® sedimentation, washed and concentrated using calcium and magnesium free Hepes buffered saline and resuspended in Hepes Hepes buffered saline with 1 mM calcium and magnesium added back. The cells are incubated briefly at room temperature with either buffer alone (for measuring spontaneous release and challenge agent stimulated release) 6% perchloric acid (for measuring total available histamine in the cells) or drug at various concentrations. The cells are then either treated with buffer alone (to measure control spontaneous and drug effect on spontaneous release) or appropriate challenge agent (e.g., anti-IgE, antigen) mixed and incubated for 45 minutes at 37° C. in a shaking water bath. The reaction is stopped by centrifugation and the supernate is poured into autoanalyzer sample cups and samples assayed for assayed for histamine content using an automated fluorometric assay. By comparing the histamine release of drug-treated cells and the challenge agent controls, drug inhibition of mediator (histamine) release can be evaluated.
Histamine release is induced by (1) an aqueous antigen extract (short rageweed or house dust), or (2) anti-IgE antisera. Whole human blood is obtained from volunteers through the Community Research Clinic (CRC-92). Volunteers are chosen on the basis of adequate histamine release induced by antigen, or antiIgE antisera challenge. Leukocytes are incubated in vitro with the challenge agents at several concentrations. Dose-response curves for each volunteer, using each challenge agent, are generated. Test compounds are evaluated for inhibition of a near maximal response to one or more challenge agents. By including appropriate controls, it is possble to measure the effect of the test compound, at various concentrations, in several ways: (1) the effect of the compound on histamine release for each challenge agent; (2) the effect of the test compound on spontaneous release of histamine in the absence of the challenge agent (buffer alone); and (3) the effect of the test compound on the histamine assay.
Histamine is assayed using an automated continuous flow system which quantitates samples of 0.4 ml or more in volume, and concentrations of approximately 0.5 ng/ml or more. The rate of analysis is 30 samples/hour.
Methods of preparing leukocytes for this assay are described by Theuson, et al, J. of Immunology, Vol. 123, p. 426 (1979).
Samples are run in triplicate, using either 1.5 ml polypropylene capped reaction tubes, or 5.0 ml plastic uncapped tubes. Test compounds and challenge agents are prepared in HACM buffer, as described above. Fixed volume pipettes are used.
Test compound or vehicle control is added to three reaction tubes at 1.5×the final desired concentration (i.e., 400 μl of test compound per 600 μl total reaction volume). One hundred μl of cells is added to each tube and the mixture is incubated for eight minutes at room temperature, and two minutes at 37° C. before antigen or other stimulus challenge. One hundred μl of the challenge agent at 6× the final concentration is then added, and the final mixture is incubated at 37° C. for 45 minutes in a shaking water bath. This ensures that the cell preparation is constantly in suspension. The reaction is stopped by centrifugation at 2000 RPM for three minutes at 4° C. The supernate (.perspectiveto.500 μl) is poured into 2.0 ml autoanalyzer beakers and assayed for histamine by the fluorometric method. […]

[1] = tested on: Isolated Guinea Pig Lung Parenchyma; assay: Smooth Muscle Receptor Agonism-Antagonism Activity Evaluations In Vitro (IVAS), LTC4-induced contraction; format: cell-based
Description: Smooth Muscle Receptor Agonism-Antagonism Activity Evaluations In Vitro (IVAS) Isolated Guinea Pig Lung Parenchyma
The potency of a test compound for receptor stimulation or antagonism, for example, can easily be determined since the concentration of the compound to which the muscle cell, or specialized responsive area on this cell, is exposed can be easily controlled and correlated with the recorded activity of muscle contraction or relaxation.
The procedures described herein are specifically concerned with the definition of a test drug action on isolated lung strips. Drug action is characterized either by an action per se on the tissues or by interaction with known smooth muscle receptor stimulants or antagonists.
Usually, the tests will be used to evaluate the ability of a test compound to antagonize the contraction induced by standard agonists in this case LTC4. A relative potency is derived by comparison with one of the standard blocking drugs. In caution, relative potencies of test compounds to known standards are valid only if full dose response curves are generated and the compound compared generate parallel dose/response curves with common maxima. Appropriate "within-trial" comparisons are also necessary.
Molecular antagonists compete with the agonist for the receptor. […] A physiological antagonist produces a response by action on a different receptor that causes an effect in opposition to the agonism.
A permanent isolated bath system is used which facilitates the vertical suspension of a segment of tissue in a small volume of a specific nutritive buffer. Frittered glass terminals provide dispersed bubbles of 95% oxygen and 5% carbon dioxide at the base of the individual tissue baths and the buffer reservoir. All baths and the reservoir are double-jacketed and water at 37° C. is circulated through the jacket of the baths to provide stable temperature regulation. The baths are arranged so that fresh solution from the reservoir passes through a jacketed glass coil to the base of the bath. The bubbling gas stirs the bath solution. During equilibration, fresh solution enters and excess solution is allowed to overflow. Unless a particular drug is required throughout the experiment and it is incorporated in the buffer, individual drugs are introduced directly into the bath by long hypodermic needles to the base of the bath without disturbing the tissue. Drugs are removed by rapidly draining the tissue bath from the bottom and refilling. Tissues are washed a minimum of six times. The emptying and refilling sequence takes only five seconds.
The contraction and relaxation of the smooth muscle preparation can be recorded either isotonically (change in length) or isometrically (change in tension). Isometric transducers are more sensitive and proportional. Isometric contractions are recorded electronically using Grass FT 0.03C force displacement transducers and Beckman Dynagraph recorders. The tissue is suspended vertically with one end of the segment anchored to the bottom of the bath and the other end attached to the mechanical electrical transducer muscle level. The electrical output of this transducer moves a pen on a moving chart in proportion to the force displacement.
Lung tissue is obtained from normal male guinea pigs. The heart and lungs are removed as a unit, placed in buffer, and the lungs are perfused with buffer by the spontaneously beating heart for several minutes.

[2] = Tripeptide challenge, read-out: HHB (Tripeptide), percent inhibition of histamine release
[3] = antigen challenge, read-out: HHB (antigen), percent inhibition of histamine release

| SMILES | IC50 (leukotriene receptor) [µM] | inhibition at 33 µM (Human Basophils; [2]) [%] | inhibition at 33 µM (Human Basophils; [3]) [%] | response (r1), of maximum ([1]; 1 ng/ml LTC4, isolated lung strip) | contraction, of maximum ([1]; 3×10^-5 M, isolated guinea pig lung strip) | minimal effective concentration ([1]; Cavia porcellus, isolated guinea pig lung strip, read-out: threshold dose (contraction of lung strip)) [µM] |
| --- | --- | --- | --- | --- | --- | --- |
| O=C(O)c1ccccc1-c1ccccc1C(=O)Nc1ccccc1CCc1ccc(Cl)c(Cl)c1 [Example 12, [1,1'-Biphenyl]-2-carboxylic acid, 2'-[[[2-[2-(3,4-dichlorophenyl)ethyl]phenyl]amino]carbonyl]-] | 13.7 | 99 | -42 |  |  |  |
| CCCCC/C=C\C\C=C/C=C/C=C/[C@@H](SC[C@H](NC(=O)CC[C@H](N)C(=O)O)C(=O)NCC(=O)O)[C@@H](O)CCCC(=O)O [LTC4, leukotriene C4] |  |  |  | 15-20% |  |  |
| NCCc1c[nH]cn1 [histamine] |  |  |  |  | approximately 75% | ~3 |

Second part, led by results:

| IC50 (leukotriene receptor) [µM] | SMILES | inhibition at 33 µM (Human Basophils; [2]) [%] | inhibition at 33 µM (Human Basophils; [3]) [%] | response (r1), of maximum ([1]; 1 ng/ml LTC4, isolated lung strip) | contraction, of maximum ([1]; 3×10^-5 M, isolated guinea pig lung strip) | minimal effective concentration ([1]; Cavia porcellus, isolated guinea pig lung strip, read-out: threshold dose (contraction of lung strip)) [µM] |
| --- | --- | --- | --- | --- | --- | --- |
| 9.7 | O=C(O)c1ccccc1-c1ccccc1C(=O)Nc1ccc(CCc2ccc(C(F)(F)F)cc2)cc1 [Example 10] | 74 | 62 |  |  |  |
| 3.7 | CC(C)(C)c1cc(CCc2ccc(NC(=O)c3ccccc3-c3ccccc3C(=O)O)cc2)cc(C(C)(C)C)c1O [Example 14, [1,1'-Biphenyl]-2-carboxylic acid, 2'-[[[4-[2-[3,5-bis(1,1-dimethylethyl)-4-hydroxyphenyl]ethyl]phenyl]amino]carbonyl]-] | 96 | 41 |  |  |  |
| 10.5 | O=C(O)c1ccccc1-c1ccccc1C(=O)Nc1cccc(Cc2ccc(Cl)c(Cl)c2)c1 [Example 17, [1,1'-Biphenyl]-2-carboxylic acid, 2'-[[[3-[(3,4-dichlorophenyl)methyl]phenyl]amino]carbonyl]-] | 97 |  |  |  |  |
| 16.5 | Cc1ccc(CCc2ccc(NC(=O)c3ccccc3-c3ccccc3C(=O)O)cc2)cc1 [Example 18, [1,1'-Biphenyl]-2-carboxylic acid, 2'-[[[4-[2-(4-methylphenyl)ethyl]phenyl]amino]carbonyl]-] | 98 | 60 |  |  |  |
